{
  "source": "paper PMC8989696",
  "about": "“Characterization of furathiocarb metabolism in in-vitro human liver microsomes and recombinant cytochrome P450 enzymes” (Toxicology Reports, 2022)",
  "key": {"[1]": {"assay": "Furathiocarb biotransformation kinetics in individual human hepatic microsomes (10 donors)", "format": "in vitro ADME", "settings": "for Km: human", "method": "The incubation mixture (ﬁnal volume of 200 µl of 0.1 M phosphate buffer) contained 50 and 100 µM furathiocarb, 0.15 mg pooled liver microsomal protein (n = 10), and 1 mM NADPH. The reaction was initiated by NADPH after a 2 min pre-incubation at + 37 °C and was incubated for 30 min at + 37 °C. The reaction stopped with ice-cold acetonitrile containing an internal standard.\nEnzyme kinetic parameters of both the microsomal samples and rCYP enzymes were measured. The incubation mixture contained furathiocarb (2.5, 10, 25, 50, 150 and 300 µM). Incubation times were 20 and 30 min for microsomal samples and rCYPs, respectively. Otherwise incubation mixtures and methods were the same as in metabolite identification. The rate of sum of furathiocarb metabolite formation was linear at least up to 0.15 mg protein/ml and 30 min incubation time in the standard experimental conditions.\nThe standard incubation mixture contained 50 and 100 µM furathiocarb, 0.15 mg pooled liver microsomal protein (n = 10), and 1 mM NADPH in a ﬁnal volume of 200 µl of 0.1 M phosphate buffer (pH 7.4). Furathiocarb was prepared once a week in dimethylsulfoxide (DMSO; ﬁnal amount in the reaction medium 1.0%). After a 2-min incubation at +37 ◦C in a shaking incubator block, the reaction was started by adding NADPH. The mixture was incubated at +37 ◦C for 30 min and the reaction was stopped with 600 µl of ice-cold acetonitrile containing an internal standard. All incubations were carried out in triplicate."}, "[2]": {"system": "UDP-glucuronosyl transferase (UGT)", "assay": "Incubation with human hepatic homogenate fortified with UDP-glucuronic acid (phase II metabolites)", "format": "in vitro ADME", "settings": "data not illustrated"}},
  "note": "Several values for one entry are separate records, joined by “and”; a condition that tells them apart may be missing. Equal values may be shown once. Read-outs that look alike come from different tables or passages of the source.",
  "data": [
    {"smiles": "CCCCOC(=O)N(C)SN(C)C(=O)Oc1cccc2c1OC(C)(C)C2", "note": "[furathiocarb, Furathiocarb]", "values": [
      {"measurement": "CLint, sum of carbofuran metabolic pathway", "setting": "[1]; HLM20", "value": "310.4 µL (mg protein min)"},
      {"measurement": "CLint, sum of furathiocarb oxidation pathways", "setting": "[1]; HLM20", "value": "12.63 µL (mg protein min)"},
      {"measurement": "Vmax, sum of carbofuran metabolic pathway", "setting": "[1]; HLM20", "value": "19.6 ± 1.7 nmol (mg protein min)"},
      {"measurement": "Vmax, sum of furathiocarb oxidation pathways", "setting": "[1]; HLM20", "value": "4.3 ± 0.8 nmol (mg protein min)"},
      {"measurement": "carbofuran pathway / oxidation pathways (CLint ratio)", "setting": "[1]; HLM20", "value": 24.5, "unit": "fold"},
      {"measurement": "CLint, sum of carbofuran metabolic pathway", "setting": "[1]; HLM21", "value": "339.0 µL (mg protein min)"},
      {"measurement": "CLint, sum of furathiocarb oxidation pathways", "setting": "[1]; HLM21", "value": "9.22 µL (mg protein min)"},
      {"measurement": "Vmax, sum of carbofuran metabolic pathway", "setting": "[1]; HLM21", "value": "22.6 ± 2.5 nmol (mg protein min)"},
      {"measurement": "Vmax, sum of furathiocarb oxidation pathways", "setting": "[1]; HLM21", "value": "4.1 ± 1.1 nmol (mg protein min)"},
      {"measurement": "carbofuran pathway / oxidation pathways (CLint ratio)", "setting": "[1]; HLM21", "value": 36.8, "unit": "fold"},
      {"measurement": "CLint, sum of carbofuran metabolic pathway", "setting": "[1]; HLM22", "value": "619.7 µL (mg protein min)"},
      {"measurement": "Vmax, sum of carbofuran metabolic pathway", "setting": "[1]; HLM22", "value": "44.5 nmol/ (mg protein min) and 44.5 ± 5.1 nmol/ (mg protein min)"},
      {"measurement": "CLint, sum of carbofuran metabolic pathway", "setting": "[1]; HLM23", "value": "348.6 µL (mg protein min)"},
      {"measurement": "CLint, sum of furathiocarb oxidation pathways", "setting": "[1]; HLM23", "value": "13.48 µL (mg protein min)"},
      {"measurement": "Vmax, sum of carbofuran metabolic pathway", "setting": "[1]; HLM23", "value": "17.4 ± 1.6 nmol (mg protein min)"},
      {"measurement": "Vmax, sum of furathiocarb oxidation pathways", "setting": "[1]; HLM23", "value": "3.5 ± 7.3 nmol (mg protein min)"},
      {"measurement": "carbofuran pathway / oxidation pathways (CLint ratio)", "setting": "[1]; HLM23", "value": 25.9, "unit": "fold"},
      {"measurement": "CLint, sum of carbofuran metabolic pathway", "setting": "[1]; HLM24", "value": "404.5 µL (mg protein min)"},
      {"measurement": "CLint, sum of furathiocarb oxidation pathways", "setting": "[1]; HLM24", "value": "12.25 µL (mg protein min)"},
      {"measurement": "Vmax, sum of carbofuran metabolic pathway", "setting": "[1]; HLM24", "value": "21.9 ± 2.1 nmol (mg protein min)"},
      {"measurement": "Vmax, sum of furathiocarb oxidation pathways", "setting": "[1]; HLM24", "value": "5.1 ± 1.3 nmol (mg protein min)"},
      {"measurement": "carbofuran pathway / oxidation pathways (CLint ratio)", "setting": "[1]; HLM24", "value": 33.0, "unit": "fold"},
      {"measurement": "CLint, sum of carbofuran metabolic pathway", "setting": "[1]; HLM28", "value": "779.6 µL (mg protein min)"},
      {"measurement": "CLint, sum of furathiocarb oxidation pathways", "setting": "[1]; HLM28", "value": "6.75 µL (mg protein min)"},
      {"measurement": "Vmax, sum of carbofuran metabolic pathway", "setting": "[1]; HLM28", "value": "43.6 ± 4.7 nmol (mg protein min)"},
      {"measurement": "Vmax, sum of furathiocarb oxidation pathways", "setting": "[1]; HLM28", "value": "11.5 nmol/ (mg protein min) and 11.5 ± 6.4 nmol/ (mg protein min)"},
      {"measurement": "carbofuran pathway / oxidation pathways (CLint ratio)", "setting": "[1]; HLM28", "value": "115 fold and 115.4 fold"},
      {"measurement": "CLint, sum of carbofuran metabolic pathway", "setting": "[1]; HLM29", "value": "378.2 µL (mg protein min)"},
      {"measurement": "CLint, sum of furathiocarb oxidation pathways", "setting": "[1]; HLM29", "value": "10.73 µL (mg protein min)"},
      {"measurement": "Vmax, sum of carbofuran metabolic pathway", "setting": "[1]; HLM29", "value": "24.3 ± 2.5 nmol (mg protein min)"},
      {"measurement": "Vmax, sum of furathiocarb oxidation pathways", "setting": "[1]; HLM29", "value": "5.3 ± 1.4 nmol (mg protein min)"},
      {"measurement": "carbofuran pathway / oxidation pathways (CLint ratio)", "setting": "[1]; HLM29", "value": 35.2, "unit": "fold"},
      {"measurement": "CLint, sum of carbofuran metabolic pathway", "setting": "[1]; HLM30", "value": "701.2 µL (mg protein min)"},
      {"measurement": "CLint, sum of furathiocarb oxidation pathways", "setting": "[1]; HLM30", "value": "10.99 µL (mg protein min)"},
      {"measurement": "Vmax, sum of carbofuran metabolic pathway", "setting": "[1]; HLM30", "value": "18.2 ± 1.8 nmol (mg protein min)"},
      {"measurement": "Vmax, sum of furathiocarb oxidation pathways", "setting": "[1]; HLM30", "value": "5.1 ± 1.3 nmol (mg protein min)"},
      {"measurement": "carbofuran pathway / oxidation pathways (CLint ratio)", "setting": "[1]; HLM30", "value": "64 fold and 63.8 fold"},
      {"measurement": "CLint, sum of carbofuran metabolic pathway", "setting": "[1]; HLM31", "value": "244 µl/ (mg protein min) and 244.3 µl/ (mg protein min)"},
      {"measurement": "CLint, sum of furathiocarb oxidation pathways", "setting": "[1]; HLM31", "value": "7.0 µl/ (mg protein min) and 7.00 µl/ (mg protein min)"},
      {"measurement": "Vmax, sum of carbofuran metabolic pathway", "setting": "[1]; HLM31", "value": "15.5 nmol/ (mg protein min) and 15.5 ± 1.1 nmol/ (mg protein min)"},
      {"measurement": "Vmax, sum of furathiocarb oxidation pathways", "setting": "[1]; HLM31", "value": "1.7 nmol/ (mg protein min) and 1.7 ± 0.3 nmol/ (mg protein min)"},
      {"measurement": "carbofuran pathway / oxidation pathways (CLint ratio)", "setting": "[1]; HLM31", "value": 34.9, "unit": "fold"},
      {"measurement": "CLint, sum of carbofuran metabolic pathway", "setting": "[1]; HLM32", "value": "399.9 µL (mg protein min)"},
      {"measurement": "CLint, sum of furathiocarb oxidation pathways", "setting": "[1]; HLM32", "value": "13.04 µL (mg protein min)"},
      {"measurement": "Vmax, sum of carbofuran metabolic pathway", "setting": "[1]; HLM32", "value": "15.5 nmol/ (mg protein min) and 15.5 ± 1.4 nmol/ (mg protein min)"},
      {"measurement": "Vmax, sum of furathiocarb oxidation pathways", "setting": "[1]; HLM32", "value": "3.7 ± 0.6 nmol (mg protein min)"},
      {"measurement": "carbofuran pathway / oxidation pathways (CLint ratio)", "setting": "[1]; HLM32", "value": 30.6, "unit": "fold"},
      {"measurement": "Km", "setting": "[1]; pH 7.4, HLM20, read-out: Km, sum of carbofuran metabolic pathway", "value": "63.2 ± 16.3", "unit": "µM"},
      {"measurement": "Km", "setting": "[1]; pH 7.4, HLM20, read-out: Km, sum of furathiocarb oxidation pathways", "value": "343 ± 128", "unit": "µM"},
      {"measurement": "Km", "setting": "[1]; pH 7.4, HLM21, read-out: Km, sum of carbofuran metabolic pathway", "value": "66.7 ± 20.6", "unit": "µM"},
      {"measurement": "Km", "setting": "[1]; pH 7.4, HLM21, read-out: Km, sum of furathiocarb oxidation pathways", "value": "453 ± 215", "unit": "µM"},
      {"measurement": "Km", "setting": "[1]; pH 7.4, HLM22, read-out: Km, sum of carbofuran metabolic pathway", "value": "71.8 ± 21.7", "unit": "µM"},
      {"measurement": "Km", "setting": "[1]; pH 7.4, HLM23, read-out: Km, sum of carbofuran metabolic pathway", "value": "50 ± 14.1", "unit": "µM"},
      {"measurement": "Km", "setting": "[1]; pH 7.4, HLM23, read-out: Km, sum of furathiocarb oxidation pathways", "value": "260 ± 117", "unit": "µM"},
      {"measurement": "Km", "setting": "[1]; pH 7.4, HLM24, read-out: Km, sum of carbofuran metabolic pathway", "value": "54.3 ± 16.1", "unit": "µM"},
      {"measurement": "Km", "setting": "[1]; pH 7.4, HLM24, read-out: Km, sum of furathiocarb oxidation pathways", "value": "410 ± 197", "unit": "µM"},
      {"measurement": "Km", "setting": "[1]; pH 7.4, HLM28, read-out: Km, sum of carbofuran metabolic pathway", "value": "55.8 ± 18", "unit": "µM"},
      {"measurement": "Km", "setting": "[1]; pH 7.4, HLM28, read-out: Km, sum of furathiocarb oxidation pathways", "value": "1710 ± 852", "unit": "µM"},
      {"measurement": "Km", "setting": "[1]; pH 7.4, HLM29, read-out: Km, sum of carbofuran metabolic pathway", "value": "64.2 ± 18.9", "unit": "µM"},
      {"measurement": "Km", "setting": "[1]; pH 7.4, HLM29, read-out: Km, sum of furathiocarb oxidation pathways", "value": "495 ± 237", "unit": "µM"},
      {"measurement": "Km", "setting": "[1]; pH 7.4, HLM30, read-out: Km, sum of carbofuran metabolic pathway", "value": "25.9 ± 9.5", "unit": "µM"},
      {"measurement": "Km", "setting": "[1]; pH 7.4, HLM30, read-out: Km, sum of furathiocarb oxidation pathways", "value": "456 ± 208", "unit": "µM"},
      {"measurement": "Km", "setting": "[1]; pH 7.4, HLM31, read-out: Km, sum of carbofuran metabolic pathway", "value": "63.3 ± 13.4", "unit": "µM"},
      {"measurement": "Km", "setting": "[1]; pH 7.4, HLM31, read-out: Km, sum of furathiocarb oxidation pathways", "value": "239 ± 79.5", "unit": "µM"},
      {"measurement": "Km", "setting": "[1]; pH 7.4, HLM32, read-out: Km, sum of carbofuran metabolic pathway", "value": "38.8 ± 11.3", "unit": "µM"},
      {"measurement": "Km", "setting": "[1]; pH 7.4, HLM32, read-out: Km, sum of furathiocarb oxidation pathways", "value": "280 ± 102", "unit": "µM"},
      {"measurement": "Ratio carbofuran metabolic pathway / furathiocarb oxidation pathway", "setting": "[1]; range in 10-donor panel of hepatic microsomes", "value": "24- to 115 fold"},
      {"measurement": "Phase II metabolites", "setting": "[2]", "value": "no phase II metabolites were detected"}
    ]}
  ]
}
